Test results reported in PMC4303912, “A primary fish gill cell culture model to assess pharmaceutical uptake and efflux: Evidence for passive and facilitated transport” (Aquatic Toxicology (Amsterdam, Netherlands), 2015).
Where two headings read alike, the source gives them in different places. Marks after values point to notes of the source that are not given here.

Assays:
[1] = Membrane (paracellular) permeability with 14C-mannitol; format: in vitro ADME, rainbow trout (Oncorhynchus mykiss); conditions: for Papp A→B at 24 h, 0.43 nM: rainbow trout (Oncorhynchus mykiss)
DSI gill cell epithelium [2] = test: Concentration-dependent uptake of propranolol, in vitro basal concentrations; format: in vitro ADME, rainbow trout (Oncorhynchus mykiss); conditions: for In vitro concentration (basal compartment): 6 h apical exposure, asymmetrical
Experimental: Radioactivity was analyzed as previously described in Section 2.3.
This was calculated using the mammalian fish leverage model, whereby the predicted plasma concentration can be described by multiplying the environmental concentration by the blood to water partitioning coefficient ([Huggett et al., 2004]) using the Fitzsimmons model for the partitioning of compounds between blood and water ([Fitzsimmons et al., 2001]).

DSI gill cell epithelium [3] = test: Bidirectional transport assays (BTA), apparent permeability coefficients and transport ratios; conditions: for difference between Papp A:B and Papp B:A: 6 h; for time-dependent BTA, uptake versus efflux (% of donor concentration): over 48 h
[4] = as above; conditions: rainbow trout (Oncorhynchus mykiss)
DSI gill cell epithelium [5] = test: Concentration equilibrium transport assays (CETA); conditions: for CETA, percentage of initial concentration apical versus basal: 1 μg L^−1 both sides, over 48 h
[6] = set-up: method as in Owen et al., 2009; conditions: ref Owen et al., 2009, cited from earlier work; for In vivo plasma concentration: 40 days exposure
DSI gill cell epithelium [7] = test: pH-dependent transport of propranolol; format: in vitro ADME, rainbow trout (Oncorhynchus mykiss); conditions: pH from 8 to 9.5; asymmetrical; 6 h
[8] = pH-dependent transport of propranolol; format: in vitro ADME, rainbow trout (Oncorhynchus mykiss); conditions: rainbow trout (Oncorhynchus mykiss); for Papp B→A at 6 h, 1 μg L^−1: 1 μg L^−1, read-out: Papp B:A (efflux permeability)
[9] = set-up: method as in AstraZeneca, 2014; conditions: experimentally measured values, ref AstraZeneca, 2014, cited from earlier work
[10] = cited from earlier work
[11] = tested on: propranolol uptake across DSI gill cell epithelium; test: Inhibition of the uptake of propranolol by transporter inhibitors; conditions: 400 nM inhibitor, 48 h
DSI gill cell epithelium [12] = conditions: for Uptake TR (Papp A:B/Papp B:A): rainbow trout (Oncorhynchus mykiss)
in vitro = conditions: rainbow trout (Oncorhynchus mykiss)
[13] = nominal water concentration 10 μg L^−1
[14] = nominal water concentration 100 μg L^−1
[15] = nominal water concentration 1000 μg L^−1
[16] = nominal water concentration 10,000 μg L^−1

## OC[C@@H](O)[C@@H](O)[C@H](O)[C@H](O)CO [Mannitol, mannitol]
[1]; pH 7.7, cell free inserts, TER 0 Ω cm^2 (blanked), apical freshwater, read-out: Mannitol flux (permeability)
  Papp at 24 h, 0.43 nM: 3.6 ± 0.2 ×10⁻⁶ cm/s
[1]; pH 7.7, DSI epithelia with TER 200–1000 Ω cm^2, apical freshwater, read-out: mannitol permeability
  Papp A→B at 24 h, 0.43 nM: 1.1 ± 1.1 ×10⁻⁶ cm/s
[1]; pH 7.7, DSI epithelia with TER >2 kΩ cm^2, apical freshwater, read-out: mannitol permeability (Papp A:B)
  Papp A→B at 24 h, 0.43 nM: 0.1 ± 0.01 ×10⁻⁶ cm/s

## CC(C)NCC(O)COc1cccc2ccccc12 (centres unmarked) [Propranolol, propranolol]
DSI gill cell epithelium [2]
  in vitro basolateral concentration as average share of actual plasma concentration: 16%
  in vitro basolateral concentration as average share of predicted plasma concentration: 6%
DSI gill cell epithelium [2]; 0.014–10,000 μg L^−1, 6 h, linear regression, n = 54, r^2 = 0.974
  slope of [rate] versus [concentration] (flux): 0.052
DSI gill cell epithelium [2]; n = 21, r^2 = 0.966
  slope of [in vitro] versus [actual] plasma concentration: 0.155
DSI gill cell epithelium [2]; n = 21, r^2 = 0.995
  slope of [in vitro] versus [predicted] plasma concentration: 0.063
DSI gill cell epithelium [2]; nominal water concentration 0.1 μg L^−1
  In vitro concentration (basal compartment): 0.04 (±0.002) ng mL^−1
DSI gill cell epithelium [2]; nominal water concentration 1.0 μg L^−1
  In vitro concentration (basal compartment): 0.10 (±0.001) ng mL^−1
DSI gill cell epithelium [2]; [13]
  In vitro concentration (basal compartment): 0.72 (±0.02) ng mL^−1
DSI gill cell epithelium [2]; [14]
  In vitro concentration (basal compartment): 7.5 (±0.3) ng mL^−1
DSI gill cell epithelium [2]; [15]
  In vitro concentration (basal compartment): 79.5 (±7.3) ng mL^−1
DSI gill cell epithelium [2]; [16]
  In vitro concentration (basal compartment): 812 (±158) ng mL^−1
DSI gill cell epithelium [2]; nominal water concentration 100,000 μg L^−1
  In vitro concentration (basal compartment): 5545 (±313) ng mL^−1
DSI gill cell epithelium [3]; asymmetrical conditions
  difference between Papp A:B and Papp B:A: significantly higher
  time-dependent BTA, uptake versus efflux (% of donor concentration): taken up across the gill cell surface than effluxed
[4]
  Papp A→B at 6 h, 1 μg L^−1: 1.7 ± 0.2 ×10⁻⁶ cm/s
  Papp B→A at 6 h, 1 μg L^−1: 1.1 ± 0.02 ×10⁻⁶ cm/s
[4]; pH 7.7
  Papp B→A at 6 h, 1 μg L^−1: 0.8 ± 0.1 ×10⁻⁶ cm/s
DSI gill cell epithelium [5]; CETA
  facilitated transport as share of the total transport: approximately 10%
DSI gill cell epithelium [5]; asymmetrical conditions
  CETA, percentage of initial concentration apical versus basal: increased apical to basal transport
DSI gill cell epithelium [5]; symmetrical conditions
  CETA, percentage of initial concentration apical versus basal: significantly more than the basal
[6]; nominal water concentration 1.0 μg L^−1, pooled plasma sample
  In vivo plasma concentration: 0.94 ^* (n/a) ng mL^−1
[6]; [13]
  In vivo plasma concentration: 3.3 (±0.4) ng mL^−1
[6]; [14]
  In vivo plasma concentration: 16 (±7) ng mL^−1
[6]; [15]
  In vivo plasma concentration: 280 (±116) ng mL^−1
[6]; [16]
  In vivo plasma concentration: 5200 (±1333) ng mL^−1
[6]
  actual plasma concentrations as share of predicted: 59%
DSI gill cell epithelium [7]
  effect of pH increase on Papp: without significant effect
[8]; apical freshwater pH 6, asymmetrical, 1 μg L^−1, read-out: Papp A:B (uptake permeability)
  Papp A→B at 6 h, 1 μg L^−1: 0.4 ± 0.03 ×10⁻⁶ cm/s
[8]; apical freshwater pH 6, asymmetrical
  Papp B→A at 6 h, 1 μg L^−1: 2.8 ± 0.1 ×10⁻⁶ cm/s
[8]; apical freshwater pH 8, asymmetrical
  Papp B→A at 6 h, 1 μg L^−1: 0.8 ± 0.1 ×10⁻⁶ cm/s
[9]; pH 7.4
  log Kow: 1.12 ^*

## CNC(=C[N+](=O)[O-])NCCSCc1ccc(CN(C)C)o1 [Ranitidine, ranitidine]
DSI gill cell epithelium [3]; asymmetrical conditions
  difference between Papp A:B and Papp B:A: no significant differences
  time-dependent BTA, uptake versus efflux (% of donor concentration): taken up across the gill cell surface than effluxed
DSI gill cell epithelium [3]; symmetrical conditions
  time-dependent BTA, uptake versus efflux (% of donor concentration): greater efflux transport
[4]
  efflux ratio at 6 h, 1 μg L^−1: 0.83
[10]
  pKa: 8.08
DSI gill cell epithelium [5]; CETA, efflux
  facilitated transport as share of the total transport, efflux: around 5%
DSI gill cell epithelium [5]; symmetrical conditions
  CETA, percentage of initial concentration apical versus basal: no significant differences

## CC(C)(C)NCC(O)c1cc(O)cc(O)c1 (centres unmarked) [Terbutaline, terbutaline]
DSI gill cell epithelium [3]; asymmetrical conditions
  difference between Papp A:B and Papp B:A: no significant differences
  time-dependent BTA, uptake versus efflux (% of donor concentration): slightly greater uptake than efflux
[4]
  efflux ratio at 6 h, 1 μg L^−1: 1.09
[4]; pH 7.7
  efflux ratio at 6 h, 1 μg L^−1: 1.13
DSI gill cell epithelium [5]; asymmetrical conditions
  CETA, percentage of initial concentration apical versus basal: no signs of facilitated transport
DSI gill cell epithelium [5]; symmetrical conditions
  CETA, percentage of initial concentration apical versus basal: no significant differences
[9]; no pH given
  log Kow: 1.29

## CN(C)C(=O)CCSC(SCCC(=O)O)c1cccc(/C=C/c2ccc3ccc(Cl)cc3n2)c1 (centres unmarked) [MK571]
[11]; apical application
  decrease in propranolol permeability compared to the control: approximately 40%
[11]; basal application
  decrease in propranolol permeability compared to the control: approximately 40%

## COc1ccc(CC(C)NCC(O)c2ccc(O)c(NC=O)c2)cc1 (centres unmarked) [Formoterol, formoterol]
DSI gill cell epithelium [12]
  difference between Papp A:B and Papp B:A: no significant differences
  time-dependent BTA, uptake versus efflux (% of donor concentration): slightly greater uptake than efflux
  Uptake TR (Papp A:B/Papp B:A): 1.08
DSI gill cell epithelium [12]; pH 7.7
  Uptake TR (Papp A:B/Papp B:A): 0.97
[10]; acidic
  pKa (acidic): 7.9
[10]; basic
  pKa (basic): 9.2
DSI gill cell epithelium [5]; asymmetrical conditions
  CETA, percentage of initial concentration apical versus basal: no signs of facilitated transport
DSI gill cell epithelium [5]; symmetrical conditions
  CETA, percentage of initial concentration apical versus basal: more in the apical than basal
In vitro
  efflux ratio: 0.93
In vitro; pH 7.7
  efflux ratio: 1.03

## COCCc1ccc(OCC(O)CNC(C)C)cc1 (centres unmarked) [Metoprolol, metoprolol]
DSI gill cell epithelium [3]; asymmetrical conditions
  difference between Papp A:B and Papp B:A: no significant differences
  time-dependent BTA, uptake versus efflux (% of donor concentration): slightly greater uptake than efflux
DSI gill cell epithelium [5]; asymmetrical conditions
  CETA, percentage of initial concentration apical versus basal: no signs of facilitated transport
DSI gill cell epithelium [5]; symmetrical conditions
  CETA, percentage of initial concentration apical versus basal: no significant differences

## CN(C)CCCN1c2ccccc2CCc2ccccc21 [Imipramine, imipramine]
[10]
  pKa: around 9.5
DSI gill cell epithelium [5]; CETA
  facilitated transport as share of the total transport: approximately 10%
DSI gill cell epithelium [5]; asymmetrical conditions
  CETA, percentage of initial concentration apical versus basal: increased apical to basal transport
DSI gill cell epithelium [5]; symmetrical conditions
  CETA, percentage of initial concentration apical versus basal: increased basal to apical facilitated transport
